Consider twelve molecules from patent US12521393B2, “Cytotoxicity targeting chimeras for CCR2-expressing cells” (GLAXOSMITHKLINE INTELLECTUAL PROPERTY DEVELOPMENT LIMITED, priority 2021, dated 2026).

Structures are written as SMILES. Structures can show the parent of a compound that is named as a salt.

The test relates to endogenous target monocytes in human PBMC. Briefly: PBMC ex vivo monocyte depletion flow cytometry assay (Example 200). Type of test: cell-based. As to conditions: with anti-cotinine antibody (SEQ ID NO: 11/12), 18-24 hours, EC50 in molar, read-out: Ex Vivo Depletion Assay pEC50 (converted). In short, it runs like this:
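Monocyte depletion is reported as pEC50, averaged or given individually across runs, and read by flow cytometry staining CD45, CD14 and CD4 with a viability dye. Compounds, diluted four-fold over 11 points from 1 mM DMSO stocks, were combined with 30 μg/mL Fc-enhanced anti-cotinine antibody and human PBMC, then incubated 18-24 h at 37° C.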
In general terms: Flow cytometry measures light scatter and fluorescence of single cells or particles in a stream.
For `CC(C)N(C)[C@@H]1CC[C@H](N2CC[C@H](Nc3ncnc4ccc(C(F)(F)F)cc34)C2=O)[C@H](NC(=O)CCCCCCCCC(=O)NCCCCCCCCCCNC(=O)[C@H]2CC(=O)N(C)[C@@H]2c2cccnc2)C1` [Example 165, N^1-((1R,2S,5R)-5-(isopropyl(methyl)amino)-2-((S)-2-oxo-3-((6-(trifluoromethyl)quinazolin-4-yl)amino)pyrrolidin-1-yl)cyclohexyl)-N^10-(10-((2S,3S)-1-methyl-5-oxo-2-(pyridin-3-yl)pyrrolidine-3-carboxamido)decyl)decanediamide], the EC50 is 0.631 nM.
With `CC(C)N(C)[C@@H]1CC[C@H](N2CC[C@H](Nc3ncnc4ccc(C(F)(F)F)cc34)C2=O)[C@H](NC(=O)CCOCCC(=O)N2CCC3(CCC(C(=O)NCCNC(=O)[C@H]4CC(=O)N(C)[C@@H]4c4cccnc4)CC3)CC2)C1` [Example 167, 3-(3-(3-(((1R,2S,5R)-5-(Isopropyl(methyl)amino)-2-((S)-2-oxo-3-((6-(trifluoromethyl)quinazolin-4-yl)amino)pyrrolidin-1-yl)cyclohexyl)amino)-3-oxopropoxy)propanoyl)-N-(2-((2S,3S)-1-methyl-5-oxo-2-(pyridin-3-yl)pyrrolidine-3-carboxamido)ethyl)-3-azaspiro[5.5]undecane-9-carboxamide], the EC50 was 1.58 nM.
To `CC(C)N(C)[C@@H]1CC[C@H](N2CC[C@H](Nc3ncnc4ccc(C(F)(F)F)cc34)C2=O)[C@H](NC(=O)[C@H]2CC[C@@H](NC(=O)CCOCCOCCNC(=O)CCCNC(=O)[C@H]3CC(=O)N(C)[C@@H]3c3cccnc3)CC2)C1` [Example 176, (2S,3S)-N-(4-((2-(2-(3-(((1S,4s)-4-(((1R,2S,5R)-5-(Isopropyl(methyl)amino)-2-((S)-2-oxo-3-((6-(trifluoromethyl)quinazolin-4-yl)amino)pyrrolidin-1-yl)cyclohexyl)carbamoyl)cyclohexyl)amino)-3-oxopropoxy)ethoxy)ethyl)amino)-4-oxobutyl)-1-methyl-5-oxo-2-(pyridin-3-yl)pyrrolidine-3-carboxamide] belongs 0.316 nM.
Consider `CC(C)N(CCOCCOCCC(=O)N[C@H]1CC[C@@H](C(=O)N[C@@H]2C[C@H](N(C)C(C)C)CC[C@@H]2N2CC[C@H](Nc3ncnc4ccc(C(F)(F)F)cc34)C2=O)CC1)C(=O)CCCNC(=O)[C@H]1CC(=O)N(C)[C@@H]1c1cccnc1` [Example 177, (2S,3S)-N-(4-(Isopropyl(2-(2-(3-(((1S,4s)-4-(((1R,2S,5R)-5-(isopropyl(methyl)amino)-2-((S)-2-oxo-3-((6-(trifluoromethyl)quinazolin-4-yl)amino)pyrrolidin-1-yl)cyclohexyl)carbamoyl)cyclohexyl)amino)-3-oxopropoxy)ethoxy)ethyl)amino)-4-oxobutyl)-1-methyl-5-oxo-2-(pyridin-3-yl)pyrrolidine-3-carboxamide], for which the EC50 was 0.251 nM.
To `CC(C)N(C)[C@@H]1CC[C@H](N2CC[C@H](Nc3ncnc4ccc(C(F)(F)F)cc34)C2=O)[C@H](NC(=O)CCCN2CCC3(CCC(C(=O)NCCNC(=O)[C@H]4CC(=O)N(C)[C@@H]4c4cccnc4)CC3)CC2)C1` [Example 183, 3-(4-(((1R,2S,5R)-5-(Isopropyl(methyl)amino)-2-((S)-2-oxo-3-((6-(trifluoromethyl)quinazolin-4-yl)amino)pyrrolidin-1-yl)cyclohexyl)amino)-4-oxobutyl)-N-(2-((2S,3S)-1-methyl-5-oxo-2-(pyridin-3-yl)pyrrolidine-3-carboxamido)ethyl)-3-azaspiro[5.5]undecane-9-carboxamide, 3 Formic acid salt] belongs 0.251 nM; to `CC(C)N(C)[C@@H]1CC[C@H](N2CC[C@H](Nc3ncnc4ccc(C(F)(F)F)cc34)C2=O)[C@H](NC(=O)C2CCN(C3CCN(C4CCN(CCCCNC(=O)[C@H]5CC(=O)N(C)[C@@H]5c5cccnc5)CC4)CC3)CC2)C1` [Example 185, N-((1R,2S,5R)-5-(isopropyl(methyl)amino)-2-((S)-2-oxo-3-((6-(trifluoromethyl)quinazolin-4-yl)amino)pyrrolidin-1-yl)cyclohexyl)-1″-(4-((2S,3S)-1-methyl-5-oxo-2-(pyridin-3-yl)pyrrolidine-3-carboxamido)butyl)-[1,4′:1′,4″-terpiperidine]-4-carboxamide], 0.0631 nM; to `CC(C)N(C)[C@@H]1CC[C@H](N2CC[C@H](Nc3ncnc4ccc(C(F)(F)F)cc34)C2=O)[C@H](NC(=O)[C@H]2CC[C@H](C3CCN(CCOCCOCCNC(=O)[C@H]4CC(=O)N(C)[C@@H]4c4cccnc4)CC3)CC2)C1` [Example 189, (2S,3S)-N-(2-(2-(2-(4-((1R,4r)-4-(((1R,2S,5R)-5-(Isopropyl(methyl)amino)-2-((S)-2-oxo-3-((6-(trifluoromethyl)quinazolin-4-yl)amino)pyrrolidin-1-yl)cyclohexyl)carbamoyl)cyclohexyl)piperidin-1-yl)ethoxy)ethoxy)ethyl)-1-methyl-5-oxo-2-(pyridin-3-yl)pyrrolidine-3-carboxamide], 7.94 nM.
Regarding `CC(C)N(C)[C@@H]1CC[C@H](N2CC[C@H](Nc3ncnc4ccc(C(F)(F)F)cc34)C2=O)[C@H](NC(=O)[C@H]2CC[C@H](N3CCN(CCOCCOCCNC(=O)[C@H]4CC(=O)N(C)[C@@H]4c4cccnc4)CC3)CC2)C1` [Example 190, (2S,3S)-N-(2-(2-(2-(4-((1R,4r)-4-(((1R,2S,5R)-5-(isopropyl(methyl)amino)-2-((S)-2-oxo-3-((6-(trifluoromethyl)quinazolin-4-yl)amino)pyrrolidin-1-yl)cyclohexyl)carbamoyl)cyclohexyl)piperazin-1-yl)ethoxy)ethoxy)ethyl)-1-methyl-5-oxo-2-(pyridin-3-yl)pyrrolidine-3-carboxamide], the EC50 is 3.16 nM.
Consider `CC(C)N(C)[C@@H]1CC[C@H](N2CC[C@H](Nc3ncnc4ccc(C(F)(F)F)cc34)C2=O)[C@H](NC(=O)[C@H]2CC[C@@H](NC(=O)CCCOCCCOCCCNC(=O)[C@H]3CC(=O)N(C)[C@@H]3c3cccnc3)CC2)C1` [Example 193, (2S,3S)-N-(3-(3-(4-(((1S,4s)-4-(((1R,2S,5R)-5-(Isopropyl(methyl)amino)-2-((S)-2-oxo-3-((6-(trifluoromethyl)quinazolin-4-yl)amino)pyrrolidin-1-yl)cyclohexyl)carbamoyl)cyclohexyl)amino)-4-oxobutoxy)propoxy)propyl)-1-methyl-5-oxo-2-(pyridin-3-yl)pyrrolidine-3-carboxamide], for which the EC50 was 0.2 nM.
The figure for `CC(C)N(C)[C@@H]1CC[C@H](N2CC[C@H](Nc3ncnc4ccc(C(F)(F)F)cc34)C2=O)[C@H](NC(=O)CCCCCCCCNCCOCCOCCOCCOCCNC(=O)[C@H]2CC(=O)N(C)[C@@H]2c2cccnc2)C1` [Example 195, (2S,3S)-N-(24-(((1R,2S,5R)-5-(Isopropyl(methyl)amino)-2-((S)-2-oxo-3-((6-(trifluoromethyl)quinazolin-4-yl)amino)pyrrolidin-1-yl)cyclohexyl)amino)-24-oxo-3,6,9,12-tetraoxa-15-azatetracosyl)-1-methyl-5-oxo-2-(pyridin-3-yl)pyrrolidine-3-carboxamide, 3Trifluoroacetic acid salt] is 0.316 nM.
To `CC(C)N(C)[C@@H]1CC[C@H](N2CC[C@H](Nc3ncnc4ccc(C(F)(F)F)cc34)C2=O)[C@H](NC(=O)CCCCCCCCNCCCCCCCCCCNC(=O)[C@H]2CC(=O)N(C)[C@@H]2c2cccnc2)C1` [Example 196, (2S,3S)-N-(10-((9-(((1R,2S,5R)-5-(Isopropyl(methyl)amino)-2-((S)-2-oxo-3-((6-(trifluoromethyl)quinazolin-4-yl)amino)pyrrolidin-1-yl)cyclohexyl)amino)-9-oxononyl)amino)decyl)-1-methyl-5-oxo-2-(pyridin-3-yl)pyrrolidine-3-carboxamide, 3Formic acid salt.] belongs 0.2 nM; to `CC(C)N(C)[C@@H]1CC[C@H](N2CC[C@H](Nc3ncnc4ccc(C(F)(F)F)cc34)C2=O)[C@H](NC(=O)[C@H]2CC[C@@H](NC(=O)CCOCCCOCCCNC(=O)[C@H]3CC(=O)N(C)[C@@H]3c3cccnc3)CC2)C1` [Example 197, (2S,3S)-N-(3-(3-(3-(((1S,4s)-4-(((1R,2S,5R)-5-(Isopropyl(methyl)amino)-2-((S)-2-oxo-3-((6-(trifluoromethyl)quinazolin-4-yl)amino)pyrrolidin-1-yl)cyclohexyl)carbamoyl)cyclohexyl)amino)-3-oxopropoxy)propoxy)propyl)-1-methyl-5-oxo-2-(pyridin-3-yl)pyrrolidine-3-carboxamide], 1 nM.
